Assay results taken from patent US9242951B2, “Covalent inhibition of bacterial quorum sensing” (priority 2009, dated 2016).
Like-named read-outs stand apart in the source and are kept apart here.

What was measured:
[1] = tested on: LasI reporter coupled to the luxCDABE luminescence system; assay: P. aeruginosa PAO-JP2 QS agonist/antagonist assay (luminescence reporter); type: cell-based; conditions: for IC50: Pseudomonas aeruginosa, read-out: IC50, 3-oxo-C12-HSL antagonist activity in PAO-JP2
Procedure: P. aeruginosa PAO-JP2 QS Agonist/Antagonist Assay.
PAO-JP2, a lasI/rhlI-deleted strain harboring plasmid pKD201 containing a LasI reporter coupled to the luxCDABE luminescence system (see above), was incubated overnight in LB medium containing 300 micro-g/ml of trimethoprim. A 96-well black microtiter plate (Greiner) was prepared as described for the PA01 inhibition assay. The relative luminescence was then plotted against the added inhibitor concentration; IC50 values were calculated using Grafit 6.0 (Erithacus Software). For antagonist experiments, a final concentration of 50 nM 3-oxo-C12-HSL was used.

LasR-LBD = biological target: T1, LasR-LBD (Pseudomonas aeruginosa, UniProt P25084); assay: Expression of LasR-LBD in presence of probe; covalent labeling by LC-MS and soluble protein by SDS-PAGE; type: binding, P. aeruginosa; conditions: for soluble LasR-LBD obtained on expression in presence of compound: SDS-PAGE of purified protein; for covalent modification of purified LasR-LBD (LC-MS): 10-100 micro-M compound in bacterial growth culture
T1 construct: His6; made in house; host or cells: E. coli BL21 (pETM-11)
T1 sequence (P25084 1-173): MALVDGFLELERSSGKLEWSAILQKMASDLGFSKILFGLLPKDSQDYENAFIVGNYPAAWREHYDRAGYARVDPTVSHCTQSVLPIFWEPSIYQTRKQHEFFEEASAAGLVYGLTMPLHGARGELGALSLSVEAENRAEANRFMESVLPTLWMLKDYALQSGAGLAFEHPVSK
Procedure: All MS analyses were performed on a LCQ Fleet mass spectrometer (Thermo Scientific) with an ESI source. Spectra were collected in positive ion mode and analyzed by Xcalibur and Promass software (Thermo Scientific). For LC/MS analyses a Surveyor Plus HPLC System (Thermo Scientific) was used, equipped with a Luna C18, 5 μm (150×4.6 mm) column at a flow rate of 0.5 mL/min, using a mobile phase linear gradient of 0.1% aqueous formic acid (solvent A) and CH3CN containing 0.1% formic acid (solvent B).
The expression of full length LasR was previously found to yield largely insoluble protein in the presence or absence of the native ligand, 3-oxo-C12-HSL (Bottomley, M. J., Muraglia, E., Bazzo, R. & Carfi, A. Molecular insights into quorum sensing in the human pathogen Pseudomonas aeruginosa from the structure of the virulence regulator LasR bound to its autoinducer. J Biol Chem 282, 13592-600 (2007)). Therefore, expression was performed using a strain transformed with a pETM-11 vector encoding for a shortened, His6-tagged LasR construct, LasR-LBD (ligand-binding domain), spanning residues Met-1 to Lys-173. The plasmid was transferred into E. coli BL21 and cells were incubated in 1 mL rich LB medium for 1 hour. The cells were then grown on LB agar plates containing kanamycin (50 micro-g/mL). For expression, a single colony was selected and transferred into 5 mL of rich LB medium containing kanamycin and grown overnight. Proteins were expressed in the presence of either native 3-oxo-C12-HSL or different inhibitors and purified by Ni^2+ affinity chromatography as previously described (Bottomley, M. J., Muraglia, E., Bazzo, R. & Carfi, A. Molecular insights into quorum sensing in the human pathogen Pseudomonas aeruginosa from the structure of the virulence regulator LasR bound to its autoinducer. J Biol Chem 282, 13592-600 (2007), yielding ˜70 mg of purified protein per liter of LB medium using large scale expression conditions, and ˜0.5-1 mg of purified protein from 50 mL of LB medium using small scale expression conditions. The purification process was monitored by SDS-PAGE electrophoresis and the molecular mass of the purified proteins was confirmed by mass spectrometry.
1 mL of the overnight grown cell culture was used to inoculate 1 liter of rich LB medium containing kanamycin (50 micro-g/mL) and 10-100 micro-M of 3-oxo-C12-HSL or inhibitors 7a-c and 11a-g. Cells were grown to an optical density (OD600 nm) of 0.4, after which expression was induced at 21° C. by addition of 0.2 mM isopropyl 1-thio-beta-D-galactopyranoside (IPTG) and an additional amount of ligand/inhibitor was added to the media. After reaching an OD600 nm of 1.4 (approx. 6-8 hours), cells were centrifuged at 6000 rpm, washed and resuspended in lysis buffer containing 5 mM imidazole, 300 mM NaCl, 50 mM Tris-HCl, pH 8. Cells were ultrasonicated for 2 minutes at 70% amplitude for two cycles. The lysate was centrifuged at 12,000 rpm for 30 minutes, and the supernatants were purified by Ni^2+ affinity chromatography.
Small scale expression was performed in 50 mL volume following the previous procedure. Cells were harvested by chemical lysis, adding 1 mL of lysis buffer (5 mM imidazole, 300 mM NaCl, 0.2% (v/v) Triton X-100, 0.75 μg/mL DNase-I, 0.05 mM MgCl2, 0.01 mM CaCl2, 50 mM Tris-HCl, pH 8, and 0.01% (v/v) protein inhibitor cocktail), and incubated for 60 minutes at 37° C. Cell debris was removed by centrifugation at 4,000 rpm for 15 minutes. […]

[2] = tested on: wild type P. aeruginosa PAO1 strain; assay: Pyocyanin production of wild type PAO1; type: cell-based; conditions: 50 micro-M, 36 h, versus DMSO
Procedure: (§1) To assess whether the reactive probes inhibit QS-regulated activities, such as biofilm formation and pyocyanin production, the wild type P. aeruginosa PAO1 strain was incubated in the presence of itc-12 and 4-Br-PHL (both at 50 micro-M), or DMSO, as a control, in microtiter plates that allow analysis of 24 h biofilm formation and in vials allowing measurement of 36 h pyocyanin production. […] However, even a partial reduction in biofilm formation may be sufficient to render the bacteria vulnerable to host responses, as not only is total biofilm mass affected upon disruption of QS, but also is its architecture, its degree of porosity and its extent of flexibility and robustness.

[3] = tested on: LasI reporter coupled to the luxCDABE luminescence system; assay: P. aeruginosa wild-type strain (PA01) QS inhibition assay (luminescence reporter); type: cell-based; conditions: for IC50: Pseudomonas aeruginosa, PAO1, read-out: IC50, inhibition of luminescence in wild type PAO1 reporter strain; for inhibition of lasI expression in PAO1-luxCDABE (virulence): FIG. 9
Procedure: P. aeruginosa Wild-Type Strain (PA01) QS Inhibition Assay.
The P. aeruginosa PA01 wild type strain harboring plasmid pKD201 containing a LasI reporter coupled to the luxCDABE luminescence system (Duan, K. & Surette, M. G. Environmental regulation of Pseudomonas aeruginosa PAO1 Las and Rhl quorum-sensing systems. J Bacteriol 189, 4827-36 (2007)), was incubated overnight in LB medium containing 300 micro-g/ml of trimethoprim. A 96-well black microtiter plate (Greiner) was prepared with the desired concentrations of inhibitors (up to 1 mM, above which growth inhibition was observed), and bacteria were added to reach a final absorbance density (OD600 nm) of 0.015. The plate was then incubated for a period of 12 hours at 37° C. During this time, luminescence measurements were performed at 10 minute intervals. The relative luminescence was then plotted against the added inhibitor concentration; IC50 values were calculated using Grafit 6.0 (Erithacus Software).

LasR [4] = biological target: T2, LasR (Pseudomonas aeruginosa, UniProt P25084); assay: E. coli DH5-alpha LasR agonist/antagonist assay (PlasI-lacZ, beta-galactosidase); type: cell-based, P. aeruginosa
T2 construct: expressed in transfected cells; host or cells: E. coli DH5-alpha (pJN105L + pSC11 PlasI-lacZ)
T2 sequence (P25084 whole entry): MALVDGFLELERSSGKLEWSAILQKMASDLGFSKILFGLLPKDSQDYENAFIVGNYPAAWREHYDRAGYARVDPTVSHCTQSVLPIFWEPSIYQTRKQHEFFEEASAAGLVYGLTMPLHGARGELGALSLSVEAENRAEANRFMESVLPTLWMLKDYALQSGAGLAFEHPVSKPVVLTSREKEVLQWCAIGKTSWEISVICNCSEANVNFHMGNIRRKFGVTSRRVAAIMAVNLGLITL
Procedure: E. coli DH5-Alpha LasR Agonist/Antagonist Assay.
E. coli DH5-alpha harboring the LasR expression vector. pJN105L, and a plasmid-borne PlasI-lacZ fusion (pSC11) (Lee, J. H., Lequette, Y. & Greenberg, E. P. Activity of purified QscR, a Pseudomonas aeruginosa orphan quorum-sensing transcription factor. Mol Microbiol 59, 602-9 (2006)) was used to quantify quorum sensing inhibition by measuring expression levels of beta-galactosidase. Bacteria were incubated overnight in LB medium containing 100 micro-g/mL of ampicillin and 15 micro-g/mL of gentamicin. The culture was diluted at a 1:10 ratio by volume with fresh medium and further incubated until an OD600 nm of 0.3 was reached. A 96 well microtiter plate (Greiner) was prepared with the desired concentrations of inhibitors and bacteria were added to reach a final absorbance density (OD600 nm) of 0.3. Expression was induced at the edition of L-(+)-arabinose (4 mg/mL) and the plates were incubated at 37° C. for a period of 4 hours (OD600 nm of 0.45-0.5). The cultures were then assayed for beta-galactosidase activity according to the Miller assay method^46: […] were transferred to clear 96-well microtiter plates and the OD600 was recorded. […] was then added to a polypropylene-based 96-well microtiter plate containing […] of 0.1% SDS (w/v). Wells were thoroughly rinsed by pipetation, after which the chloroform was allowed to settle. […] upper layer was transferred to a fresh 96-well microtiter plate and […]-beta-D-galactopyranoside (ONPG, 4 mg/mL in phosphate buffer of pH 7) were added. The plates were incubated 35 minutes at 28° C. The reaction was terminated with the addition of […] sodium carbonate solution, and absorption at two wavelengths (550 nm, 429 nm) was recorded. Miller units were calculated using standard methods (Miller, J. H. Experiments in Molecular Genetics. 352-355 (Cold Spring Harbor Laboratories, 1972)). For antagonist experiments, a final concentration of 50 nM 3-oxo-C12-HSL was used.

LasR [5] = biological target: T2, LasR; conditions: read-out: IC50 reported by Geske et al.; E. coli-based LasR antagonist assay, literature value; cited from earlier work
[6] = tested on: wild type P. aeruginosa PAO1 strain; assay: Biofilm formation of wild type PAO1 in microtiter plates; type: cell-based; conditions: 50 micro-M, 24 h, versus DMSO
Procedure: as §1

LasR-LBD Cys79Ala mutant = biological target: T3, LasR-LBD Cys79Ala mutant (Pseudomonas aeruginosa, UniProt P25084, C79A); assay: Expression of LasR-LBD Cys79Ala mutant in presence of probe, covalent labeling; type: binding, P. aeruginosa
T3 construct: His6; made in house; host or cells: bacteria (E. coli BL21 as for wild-type LasR-LBD, inferred)
T3 sequence (P25084 1-173 C79A): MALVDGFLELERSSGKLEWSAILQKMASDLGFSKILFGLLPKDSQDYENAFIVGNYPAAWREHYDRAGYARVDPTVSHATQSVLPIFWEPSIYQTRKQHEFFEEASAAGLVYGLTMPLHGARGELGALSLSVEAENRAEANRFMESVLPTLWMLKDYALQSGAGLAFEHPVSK

[7] = biological target: T4, LasR-LBD Cys79Ser mutation (Pseudomonas aeruginosa, UniProt P25084, C79S); assay: Expression of LasR-LBD Cys79Ser mutant in presence of probe, covalent labeling; type: binding, P. aeruginosa
T4 construct: His6; made in house; host or cells: bacteria (E. coli BL21 as for wild-type LasR-LBD, inferred)
T4 sequence (P25084 1-173 C79S): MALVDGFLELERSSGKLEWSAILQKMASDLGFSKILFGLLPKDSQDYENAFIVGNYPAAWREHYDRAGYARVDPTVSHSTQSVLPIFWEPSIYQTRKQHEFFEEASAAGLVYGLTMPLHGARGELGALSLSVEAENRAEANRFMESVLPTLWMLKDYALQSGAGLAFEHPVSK

Compound | IC50 [1] [µM] | IC50 [3] [µM] | IC50 (LasR [4]) [µM] | covalent modification of purified LasR-LBD (LC-MS) (LasR-LBD) | also measured
O=C(Cc1ccc(Br)cc1)NC1CCOC1=O (stereo not drawn) [4-Br-PHL, 2-(4-bromophenyl)-N-(2-oxo-tetrahydrofuran-3-yl)-acetamide, reference compound] | ~200 | ~250 | 4.8 ± 0.5 | – | soluble LasR-LBD obtained on expression in presence of compound (LasR-LBD): no soluble LasR was observed; inhibition of pyocyanin production [2]: significantly inhibited; IC50 (LasR [5]): 3.9 µM; inhibition of biofilm formation [6]: significantly inhibited
[N-]=[N+]=NCCCCCCCCCC(=O)CC(=O)NC1CCOC1=O (stereo not drawn) [azido-C12, 12-azido-3-oxo-N-(2-oxotetrahydrofuran-3-yl)dodecanamide] | – | – | – | no covalently labeled product | inhibitory activity compared with itc-12 ([1]; data not shown): significantly lower than that of itc-12
O=C(CCCCCCCCNC(=O)CBr)CC(=O)N[C@H]1CCOC1=O [hal-11-Br] | – | – | 26.8 ± 1.3 | – | –
O=C(CCCCCCCCNC(=O)CCl)CC(=O)N[C@H]1CCOC1=O [hal-11-Cl] | – | – | 3.1 ± 0.1 | – | –
O=C(CCCCCCCCCNC(=O)CCl)CC(=O)N[C@H]1CCOC1=O [hal-12-Cl] | 70 ± 27 | – | – | – | IC50 (LasR [4]; antagonism of LasR activation by 50 nM 3-oxo-C12-HSL, E. coli reporter, read-out: IC50, E. coli-based LasR antagonist studies): 1.1 ± 0.1 µM
O=C(CCCCCCCCN=C=S)CC(=O)NC1CCOC1=O (stereo not drawn) [itc-11, 11-isothiocyanato-3-oxo-N-(2-oxotetrahydrofuran-3-yl)undecanamide] | – | ~300 | 39.1 ± 9.4 | covalently modified | –
O=C(CCCCCCCCCN=C=S)CC(=O)NC1CCOC1=O (stereo not drawn) [itc-12, 12-isothiocyanato-3-oxo-N-(2-oxotetrahydrofuran-3-yl)dodecanamide] | 134 ± 6 | 113 ± 19 | 29.8 ± 0.5 | covalently modified | agonism in PAO-JP2-based reporter ([1]; markedly reduced levels compared to natural autoinducer): partial agonism patterns; soluble LasR-LBD obtained on expression in presence of compound (LasR-LBD): larger amounts of soluble LasR-LBD; soluble protein, LasR-LBD Cys79Ala mutant (LasR-LBD Cys79Ala mutant): Soluble protein was, however, obtained; covalent modification of LasR-LBD Cys79Ala mutant (LasR-LBD Cys79Ala mutant; data not shown): no covalent modification was detected; inhibition of pyocyanin production [2]: significantly inhibited; inhibition of lasI expression in PAO1-luxCDABE (virulence) [3]: dose-dependent manner; covalent modification of LasR-LBD Cys79Ser [7]: no covalent modification being observed; soluble protein, LasR-LBD Cys79Ser [7]: yielded expression of soluble protein; inhibition of biofilm formation [6]: significantly inhibited
O=C(CCCCCCCCCCN=C=S)CC(=O)NC1CCOC1=O (stereo not drawn) [itc-13, 13-isothiocyanato-3-oxo-N-(2-oxotetrahydrofuran-3-yl)tridecanamide] | 30 ± 7 | 45.2 ± 0.7 | 19.2 ± 3.9 | – | –
O=C(CCCCCCCCCS)CC(=O)NC1CCOC1=O (stereo not drawn) [thiol-11, 12-Mercapto-3-Oxo-N-(2-Oxotetrahydrofuran-3-yl)Dodecanamide] | – | – | – | – | inhibition of lasI expression in PAO1-luxCDABE (virulence) [3]: dose-dependent manner
